Tests used:
SHP2 = target: T1, SHP2 (Homo sapiens, UniProt Q06124); experiment: PTP activity assay with pNPP as substrate: SHP2; format: biochemical
T1 construct: The expression and purification of the SHP2 catalytic domain (residues 262-528) were described previously; made in house
T1 sequence (Q06124 262-528): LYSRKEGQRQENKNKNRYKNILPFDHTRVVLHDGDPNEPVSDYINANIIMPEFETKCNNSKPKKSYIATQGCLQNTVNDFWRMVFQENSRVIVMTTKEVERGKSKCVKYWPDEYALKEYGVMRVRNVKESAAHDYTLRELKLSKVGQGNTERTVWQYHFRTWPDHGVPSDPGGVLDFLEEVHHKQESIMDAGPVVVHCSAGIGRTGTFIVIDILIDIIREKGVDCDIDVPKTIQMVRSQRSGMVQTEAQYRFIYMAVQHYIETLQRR
Description: (§1) The PTP activity was assayed using pNPP as a substrate at 25° C. in 50 mM 3,3-dimethylglutarate buffer, pH 7.0, containing 1 mM EDTA with an ionic strength of 0.15 M adjusted by NaCl. TTM, TTN and the engineered analogs were analyzed for inhibition of a panel of PTPs at 10 μM compound concentration. For each enzyme screened, test compounds were diluted to 20 μM in 100 μL and combined with 50 μL pNPP at a concentration of 4×Km. The reaction was initiated by the addition of 50 μL of 4× concentrated enzyme and pNPP was allowed to convert to the product p-nitrophenol. The reaction was quenched by the addition of 50 μL of 5N NaOH. Nonenzymatic hydrolysis of pNPP was corrected by measuring the control without the addition of enzyme. Production of p-nitrophenol was monitored by a Spectra MAX385 microplate spectrophotometer (Molecular Devices) at 405 nm using a molar extinction coefficient of 18,000 M^−1 cm^−1. IC50 values were calculated by fitting the absorbance at 405 nm versus inhibitor concentration to the following equation: AI/A0=IC50/(IC50+[I]) where AI is the absorbance at 405 nm of the sample in the presence of inhibitor; Ao is the absorbance at 405 nm in the absence of inhibitor; and [I] is the concentration of the inhibitor.
The effect of the compounds on PTP-catalyzed hydrolysis of p-nitrophenyl phosphate (pNPP) was assessed at pH 7 and 25° C. Members of the PTP superfamily that were included in the screen included the cytosolic PTPs, PTP1B, SHP1, SHP2, Lyp, HePTP, Meg2, and FAP1, the receptor-like PTPs, CD45, LAR, and PTPα, the dual specificity phosphatases VHR, VHX, and Cdc14, and the low molecular weight PTP.
Therefore, all of the IC50 values reported in this study directly reflect the true affinity of the compound for the enzymes tested.

PTP1B = target: T2, PTP1B (Homo sapiens, UniProt P18031); experiment: PTP activity assay with pNPP as substrate: PTP1B; format: biochemical; conditions: pNPP as substrate at Km, pH 7.0, 25° C., I = 0.15 M
T2 sequence (P18031 1-435): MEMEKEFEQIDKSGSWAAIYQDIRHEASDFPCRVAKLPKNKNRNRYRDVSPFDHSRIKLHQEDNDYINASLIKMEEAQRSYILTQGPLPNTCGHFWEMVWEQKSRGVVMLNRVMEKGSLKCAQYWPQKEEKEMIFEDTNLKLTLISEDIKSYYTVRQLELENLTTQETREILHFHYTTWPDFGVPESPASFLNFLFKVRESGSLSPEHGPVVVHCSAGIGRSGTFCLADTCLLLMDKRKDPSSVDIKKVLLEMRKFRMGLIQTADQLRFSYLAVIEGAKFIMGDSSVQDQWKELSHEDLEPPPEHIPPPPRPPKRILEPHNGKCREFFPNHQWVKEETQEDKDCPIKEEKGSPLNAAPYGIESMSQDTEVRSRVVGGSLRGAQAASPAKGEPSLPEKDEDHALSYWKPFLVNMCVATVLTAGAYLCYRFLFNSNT
Description: as §1

[1] = literature (Luo et al., 2007; Mitsuhashi et al., 2003, 2008); cited from earlier work
[2] = tested on: SHP2/E76K-expressing hematopoietic progenitors; experiment: 3H-thymidine incorporation assay of transduced bone marrow LDMNCs with GM-CSF; format: cell-based; conditions: 2 μM TTN for 24 hrs, GM-CSF 1 ng/mL
Description: Transduced, EGFP+ cells were subjected to ^3H-thymidine incorporation assays, as previously described (Munugalavadla et al., 2007), or plated at a concentration of 8000 cells/mL in 0.9% methylcellulose-based media containing IMDM, 2 mM glutamine, 1% penicillin/streptomycin, 80 μM β-mercaptoethanol, 30% FBS, and GM-CSF 1 ng/mL or with saturating concentrations of growth factors including IL-3 200 U/mL, erythropoietin 4 U/mL, and stem cell factor (SCF) 100 ng/mL. All growth factors were from Peprotech. Cultures were incubated in a humidified incubator at 37° C. in 5% CO2 for 7 days and were scored for total colonies and for morphology to determine colony forming unit (CFU)-granulocyte-macrophage (GM) or CFU-monocyte (M).
For biochemical studies, macrophage progenitor cells expressing empty vector (MIEG3), wild-type SHP2, or SHP2/E76K were serum- and growth factor-deprived for 24 hours. Cells were pre-treated with DMSO or 2 μM TTN for 2 hours, and then cultures either remained unstimulated or were stimulated with GM-CSF at 50 ng/mL for 60 minutes. […] To provide further evidence that SHP2 is a molecular target of TTN, the inventors determined the X-ray crystal structure of SHP2 in complex with TTN D-1, as crystallization attempts for the SHP2-TTN complex were unsuccessful. […]

PP2A = conditions: literature values; cited from earlier work

tautomycetin [TTN]
preference for SHP2 over all PTPs examined (SHP2; from IC50 values): ≥ 5 fold | IC50 (SHP2; pNPP as substrate at Km, pH 7.0, 25° C., I = 0.15 M): 2.9 µM | IC50 (PTP1B): 40 µM | concentrations required to exert a cellular effect [1]: 1 to 5 µM | effect on GM-CSF-stimulated proliferation of SHP2/E76K-expressing progenitors [2]: effectively reduced the proliferation | IC50 (PP2A): 0.062 µM
